# Results from patent US11975055B2 (priority 2018, dated 2024).
# System: rat model of MRMT-1 induced bone cancer pain
# Details: in vivo
smiles,measurement,value
CN1CC[C@]23c4c5ccc(O)c4O[C@H]2[C@@H](O)C=C[C@H]3[C@H]1C5 [Morphine],paw withdrawal threshold (allodynia induced by bone cancer),reversal of deficit in paw withdrawal threshold
